Reference: ChEMBL document CHEMBL2176932, “De novo cyclic pseudopeptides containing aza-β3-amino acids exhibiting antimicrobial activities” (J Med Chem, 2012)
Values after ≈ are worked out from the molar mass of the structure shown.

Tests used:
[1] = Toxicity in sheep RBC assessed as hemolytic activity after 1 hr; assay type: cell-based, Ovis aries, Erythrocyte; conditions: sheep red blood cells
Escherichia coli = assay: Antibacterial activity against Escherichia coli ATCC 25922 after 48 hrs by microtiter broth dilution method; assay type: functional; conditions: ATCC 25922, 48 h
Salmonella enterica = assay: Antibacterial activity against Salmonella enterica ATCC 13076 after 48 hrs by microtiter broth dilution method; assay type: functional; conditions: ATCC 13076, 48 h
Listeria monocytogenes = assay: Antibacterial activity against Listeria monocytogenes SOR 100 after 48 hrs by microtiter broth dilution method; assay type: functional; conditions: SOR 100, 48 h
Klebsiella oxytoca = assay: Antibacterial activity against Klebsiella oxytoca CIP 7932 after 48 hrs by microtiter broth dilution method; assay type: functional; conditions: CIP 7932, 48 h
Klebsiella aerogenes = assay: Antibacterial activity against Enterobacter aerogenes ATCC 13048 after 48 hrs by microtiter broth dilution method; assay type: functional; conditions: ATCC 13048, 48 h
[2] = Toxicity in sheep RBC assessed as hemolytic activity at 100 uM after 1 hr; assay type: cell-based, Ovis aries, Erythrocyte; conditions: sheep red blood cells, read-out: Activity
Lactococcus garvieae = assay: Antibacterial activity against Lactococcus garvieae ATCC 43921 after 48 hrs by microtiter broth dilution method; assay type: functional; conditions: ATCC 43921, 48 h
Enterococcus faecalis = assay: Antibacterial activity against Enterococcus faecalis CIP 186 after 48 hrs by microtiter broth dilution method; assay type: functional; conditions: CIP 186, 48 h
Staphylococcus aureus = assay: Antibacterial activity against Staphylococcus aureus ATCC 25923 after 48 hrs by microtiter broth dilution method; assay type: functional; conditions: ATCC 25923, 48 h
Micrococcus luteus = assay: Antibacterial activity against Micrococcus luteus ATCC 10240 after 48 hrs by microtiter broth dilution method; assay type: functional; conditions: ATCC 10240, 48 h
Aeromonas caviae = assay: Antibacterial activity against Aeromonas caviae ATCC 15648 after 48 hrs by microtiter broth dilution method; assay type: functional; conditions: ATCC 15648, 48 h
Priestia megaterium = assay: Antibacterial activity against Bacillus megaterium ATCC 10778 after 48 hrs by microtiter broth dilution method; assay type: functional; conditions: ATCC 10778, 48 h
Pseudomonas aeruginosa = assay: Antibacterial activity against Pseudomonas aeruginosa ATCC 27853 after 48 hrs by microtiter broth dilution method; assay type: functional; conditions: ATCC 27853, 48 h
Streptococcus equinus = assay: Antibacterial activity against Streptococcus equinus ATCC 5623 after 48 hrs by microtiter broth dilution method; assay type: functional; conditions: ATCC 5623, 48 h
[3] = Selectivity ratio of MHC for sheep RBC to MIC for Staphylococcus aureus ATCC 25923; assay type: functional
[4] = Half life in bovine serum; assay type: ADME, cell-free, Bos taurus; conditions: cattle
[5] = Selectivity ratio of HC50 for sheep RBC to MIC for Staphylococcus aureus ATCC 25923; assay type: functional

CC(C)CN1CC(=O)N[C@@H](Cc2c[nH]c3ccccc23)C(=O)NN(CC(C)C)CC(=O)N[C@@H](CCCCN)C(=O)NN(CCCCN)CC(=O)N[C@@H](CCCCN)C(=O)N1
HC50 at 1 h [1]: > 100 µM
MIC (Escherichia coli): > 100 µM
MIC (Salmonella enterica): > 100 µM
MIC (Listeria monocytogenes): > 100 µM
MIC (Klebsiella oxytoca): > 100 µM
MIC (Klebsiella aerogenes): > 100 µM
hemolysis at 1 h, 100 µM [2]: 0%
MIC (Lactococcus garvieae): > 100 µM
MIC (Enterococcus faecalis): > 100 µM
MIC (Staphylococcus aureus): > 100 µM
MIC (Micrococcus luteus): 100 µM (≈ 84.2 µg/mL)
MIC (Aeromonas caviae): > 100 µM
MIC (Priestia megaterium): 50 µM (≈ 42.1 µg/mL)
MIC (Pseudomonas aeruginosa): > 100 µM
MIC (Streptococcus equinus): > 100 µM

CC(C)C[C@H]1NC(=O)CN(CCCCN)NC(=O)[C@H](CCCCN)NC(=O)CN(Cc2cccc3ccccc23)NC(=O)CN(CC(C)C)NC1=O
HC50 at 1 h [1]: > 100 µM
MIC (Escherichia coli): > 100 µM
MIC (Salmonella enterica): > 100 µM
MIC (Listeria monocytogenes): > 100 µM
MIC (Klebsiella oxytoca): > 100 µM
MIC (Klebsiella aerogenes): > 100 µM
hemolysis at 1 h, 100 µM [2]: 0%
MIC (Lactococcus garvieae): > 100 µM
MIC (Enterococcus faecalis): > 100 µM
MIC (Staphylococcus aureus): > 100 µM
MIC (Micrococcus luteus): 50 µM (≈ 36.2 µg/mL)
MIC (Aeromonas caviae): > 100 µM
MIC (Priestia megaterium): 50 µM (≈ 36.2 µg/mL)
MIC (Pseudomonas aeruginosa): > 100 µM
MIC (Streptococcus equinus): 100 µM (≈ 72.5 µg/mL)

CCCCCCCCCCCCN1CC(=O)N[C@@H](Cc2c[nH]c3ccccc23)C(=O)NN(Cc2cccc3ccccc23)CC(=O)N[C@@H](CCCCN)C(=O)NN(CCCCN)CC(=O)N[C@@H](CC2CCCCC2)C(=O)N1
HC50 at 1 h [1]: 50 µM
MIC (Escherichia coli): > 100 µM
MIC (Salmonella enterica): > 100 µM
MIC (Listeria monocytogenes): 12.5 µM (≈ 13.3 µg/mL)
MIC (Klebsiella oxytoca): > 100 µM
MIC (Klebsiella aerogenes): > 100 µM
hemolysis at 1 h, 100 µM [2]: 62%
MIC (Lactococcus garvieae): 50 µM (≈ 53.2 µg/mL)
MIC (Enterococcus faecalis): 12.5 µM (≈ 13.3 µg/mL)
Selectivity ratio [3]: 0.12
MIC (Staphylococcus aureus): 25 µM (≈ 26.6 µg/mL)
MIC (Micrococcus luteus): 12.5 µM (≈ 13.3 µg/mL)
half-life [4]: > 2 h
Selectivity ratio [5]: 2
MIC (Aeromonas caviae): > 100 µM
MIC (Priestia megaterium): 12.5 µM (≈ 13.3 µg/mL)
MIC (Pseudomonas aeruginosa): > 100 µM
MIC (Streptococcus equinus): 12.5 µM (≈ 13.3 µg/mL)

CC(C)CN1CC(=O)N[C@@H](Cc2c[nH]c3ccccc23)C(=O)NN(CCCCN)CC(=O)N[C@@H](CCCCN)C(=O)NN(CCCCN)CC(=O)N[C@@H](Cc2c[nH]c3ccccc23)C(=O)N1
HC50 at 1 h [1]: > 100 µM
MIC (Escherichia coli): > 100 µM
MIC (Salmonella enterica): > 100 µM
MIC (Listeria monocytogenes): > 100 µM
MIC (Klebsiella oxytoca): > 100 µM
MIC (Klebsiella aerogenes): > 100 µM
hemolysis at 1 h, 100 µM [2]: 0%
MIC (Lactococcus garvieae): > 100 µM
MIC (Enterococcus faecalis): > 100 µM
MIC (Staphylococcus aureus): > 100 µM
MIC (Micrococcus luteus): 100 µM (≈ 91.5 µg/mL)
MIC (Aeromonas caviae): > 100 µM
MIC (Priestia megaterium): 25 µM (≈ 22.9 µg/mL)
MIC (Pseudomonas aeruginosa): > 100 µM
MIC (Streptococcus equinus): > 100 µM

C[C@@H](O)[C@@H]1NC(=O)CN(CCCCN)NC(=O)[C@H](Cc2ccccc2)NC(=O)CN(Cc2cccc3ccccc23)NC(=O)[C@H](CO)NC(=O)CN(CCCCN)NC(=O)[C@H](CO)NC(=O)CN(CCCCN)NC1=O
HC50 at 1 h [1]: > 100 µM
MIC (Escherichia coli): 100 µM (≈ 106 µg/mL)
MIC (Salmonella enterica): > 100 µM
MIC (Listeria monocytogenes): > 100 µM
MIC (Klebsiella oxytoca): > 100 µM
MIC (Klebsiella aerogenes): > 100 µM
hemolysis at 1 h, 100 µM [2]: 0%
MIC (Lactococcus garvieae): > 100 µM
MIC (Enterococcus faecalis): > 100 µM
MIC (Staphylococcus aureus): > 100 µM
MIC (Micrococcus luteus): > 100 µM
MIC (Aeromonas caviae): > 100 µM
MIC (Priestia megaterium): > 100 µM
MIC (Pseudomonas aeruginosa): 100 µM (≈ 106 µg/mL)
MIC (Streptococcus equinus): > 100 µM

CC(C)C[C@@H]1NC(=O)CN(Cc2ccc3ccccc3c2)NC(=O)[C@H](CCCCN)NC(=O)CN(CCCCN)NC(=O)CN(Cc2ccc3ccccc3c2)NC1=O
HC50 at 1 h [1]: > 100 µM
MIC (Escherichia coli): > 100 µM
MIC (Salmonella enterica): 100 µM (≈ 80.9 µg/mL)
MIC (Listeria monocytogenes): 100 µM (≈ 80.9 µg/mL)
MIC (Klebsiella oxytoca): > 100 µM
MIC (Klebsiella aerogenes): > 100 µM
hemolysis at 1 h, 100 µM [2]: 0%
MIC (Lactococcus garvieae): > 100 µM
MIC (Enterococcus faecalis): > 100 µM
MIC (Staphylococcus aureus): > 100 µM
MIC (Micrococcus luteus): 6.25 µM (≈ 5.06 µg/mL)
MIC (Aeromonas caviae): > 100 µM
MIC (Priestia megaterium): 12.5 µM (≈ 10.1 µg/mL)
MIC (Pseudomonas aeruginosa): 100 µM (≈ 80.9 µg/mL)
MIC (Streptococcus equinus): 25 µM (≈ 20.2 µg/mL)

CC(C)CN1CC(=O)N[C@@H](Cc2c[nH]c3ccccc23)C(=O)NN(CC(C)C)CC(=O)N[C@@H](CCCCN)C(=O)NN(CCCCN)CC(=O)N[C@@H](Cc2c[nH]c3ccccc23)C(=O)N1
HC50 at 1 h [1]: > 100 µM
MIC (Escherichia coli): > 100 µM
MIC (Salmonella enterica): > 100 µM
MIC (Listeria monocytogenes): > 100 µM
MIC (Klebsiella oxytoca): > 100 µM
MIC (Klebsiella aerogenes): > 100 µM
hemolysis at 1 h, 100 µM [2]: 0%
MIC (Lactococcus garvieae): > 100 µM
MIC (Enterococcus faecalis): > 100 µM
MIC (Staphylococcus aureus): > 100 µM
MIC (Micrococcus luteus): 50 µM (≈ 45 µg/mL)
MIC (Aeromonas caviae): > 100 µM
MIC (Priestia megaterium): 25 µM (≈ 22.5 µg/mL)
MIC (Pseudomonas aeruginosa): > 100 µM
MIC (Streptococcus equinus): 100 µM (≈ 90 µg/mL)

CCCCCCCCN1CC(=O)N[C@@H](Cc2c[nH]c3ccccc23)C(=O)NN(CCCCCCCC)CC(=O)N[C@@H](CCCCN)C(=O)NN(CCCCN)CC(=O)N[C@@H](Cc2c[nH]c3ccccc23)C(=O)N1
HC50 at 1 h [1]: 90 µM
MIC (Escherichia coli): > 100 µM
MIC (Salmonella enterica): > 100 µM
MIC (Listeria monocytogenes): 3.12 µM (≈ 3.16 µg/mL)
MIC (Klebsiella oxytoca): > 100 µM
MIC (Klebsiella aerogenes): > 100 µM
hemolysis at 1 h, 100 µM [2]: 55%
MIC (Lactococcus garvieae): 6.25 µM (≈ 6.33 µg/mL)
MIC (Enterococcus faecalis): 12.5 µM (≈ 12.7 µg/mL)
Selectivity ratio [3]: 1
MIC (Staphylococcus aureus): 6.25 µM (≈ 6.33 µg/mL)
MIC (Micrococcus luteus): 3.12 µM (≈ 3.16 µg/mL)
half-life [4]: > 2 h
Selectivity ratio [5]: 14.4
MIC (Aeromonas caviae): > 100 µM
MIC (Priestia megaterium): 6.25 µM (≈ 6.33 µg/mL)
MIC (Pseudomonas aeruginosa): 25 µM (≈ 25.3 µg/mL)
MIC (Streptococcus equinus): 6.25 µM (≈ 6.33 µg/mL)

CC[C@H](C)[C@H](NC(=O)CN)C(=O)NCC(=O)N[C@@H](C)C(=O)N[C@H](C(=O)N[C@@H](CC(C)C)C(=O)N[C@@H](CCCCN)C(=O)N[C@H](C(=O)N[C@@H](CC(C)C)C(=O)N[C@H](C(=O)N[C@H](C(=O)NCC(=O)N[C@@H](CC(C)C)C(=O)N1CCC[C@H]1C(=O)N[C@@H](C)C(=O)N[C@@H](CC(C)C)C(=O)N[C@H](C(=O)N[C@@H](CO)C(=O)N[C@@H](Cc1c[nH]c2ccccc12)C(=O)N[C@H](C(=O)N[C@@H](CCCCN)C(=O)N[C@@H](CCCNC(=N)N)C(=O)N[C@@H](CCCCN)C(=O)N[C@@H](CCCNC(=N)N)C(=O)N[C@@H](CCC(N)=O)C(=O)N[C@@H](CCC(N)=O)C(N)=O)[C@@H](C)CC)[C@@H](C)CC)[C@@H](C)O)[C@@H](C)O)C(C)C)C(C)C [MELITTIN]
MIC (Salmonella enterica): 25 µM (≈ 71.2 µg/mL)
MIC (Klebsiella oxytoca): 25 µM (≈ 71.2 µg/mL)
MIC (Klebsiella aerogenes): 12.5 µM (≈ 35.6 µg/mL)
MIC (Lactococcus garvieae): 6.25 µM (≈ 17.8 µg/mL)
MIC (Enterococcus faecalis): 12.5 µM (≈ 35.6 µg/mL)
MIC (Micrococcus luteus): 1.56 µM (≈ 4.44 µg/mL)
half-life [4]: 0.06 h
MIC (Aeromonas caviae): > 100 µM
MIC (Priestia megaterium): 6.25 µM (≈ 17.8 µg/mL)
MIC (Streptococcus equinus): 3.12 µM (≈ 8.88 µg/mL)

CC(C)C[C@@H]1NC(=O)CN(Cc2cccc3ccccc23)NC(=O)[C@H](CCCNC(=N)N)NC(=O)CN(CCCNC(=N)N)NC(=O)[C@H](CC(C)C)NC1=O
HC50 at 1 h [1]: > 100 µM
MIC (Escherichia coli): > 100 µM
MIC (Salmonella enterica): > 100 µM
MIC (Listeria monocytogenes): > 100 µM
MIC (Klebsiella oxytoca): > 100 µM
MIC (Klebsiella aerogenes): > 100 µM
hemolysis at 1 h, 100 µM [2]: 0%
MIC (Lactococcus garvieae): > 100 µM
MIC (Enterococcus faecalis): > 100 µM
MIC (Staphylococcus aureus): > 100 µM
MIC (Micrococcus luteus): 25 µM (≈ 19.1 µg/mL)
MIC (Aeromonas caviae): > 100 µM
MIC (Priestia megaterium): 25 µM (≈ 19.1 µg/mL)
MIC (Pseudomonas aeruginosa): > 100 µM
MIC (Streptococcus equinus): 100 µM (≈ 76.6 µg/mL)
